Measurements: patent US20170266266A1, “Functions of 55 Newfound Proteins and Their Medicinal Application in the Treatment and Prevention of Disease” (priority 2012, published 2017)
Several values for one entry are separate records, joined by “and”; a condition that tells them apart may be missing. Equal values may be shown once. Read-outs that look alike come from different tables or passages of the source.

System: fatty streak lesions in rabbits on high fat diet
Format: in vivo, rabbit
Design: HDL-C, Wk 0 / HDL-C, Wk 18 or wk 21 / Fatty streak lesions area, Compare to wk 10 of control group / Fatty streak lesions area, Compare to wk 18 of control group: unit not given here
Conditions: for lipid con. at dissected aorta: triglyceride content; for increase of area of fatty streak lesion: control group 187%
Protocol: The rabbits were fasted for 12 hrs before the beginning of the experiments. Blood parameters were then tested as the normal level of plasma indicators. A total of 52 rabbits were purchased at different time, four of them were used as normal control and fed with normal diet the whole time during the experiments. […] Plasma concentrations of total cholesterol (TC), […] (TG), low density lipoprotein-cholesterol (LDL-C), very low density lipoprotein-cholesterol (VLDL-C), high density lipoprotein-cholesterol (HDL-C) were quantified by enzymatic assays. TC/HDL-C or ([…] ratios were then determined. Animals were sacrificed under deep anesthesia with sodium pentobarbital 25 mg/kg IV. The entire aorta from the aortic valve to the iliac bifurcation was removed from each rabbit and opened longitudinally. […] Atheromatous lesions were measured without staining Atheromatous lesions were manually traced in the photographs, and the percent area of the atheromatous lesions was calculated. Sample of aorta from animals were homogenated. And the content of lipid was determined.

[1] = APOA1 group 1, Wk 0 (start of high fat diet)
[2] = APOA1 group 1, Wk 10 (before APOA1 administration)
[3] = APOA1 group 1, Wk 18 (end of APOA1 administration)
[4] = APOA1 group 2, Wk 0 (start of high fat diet)
[5] = APOA1 group 2, Wk 10 (before APOA1 administration)
[6] = APOA1 group 2, Wk 21 (end of APOA1 administration)

human Apolipoprotein AI [APOAI]
TC/HDL-C [1]: 1.938 | plasma HDL-C [1]: 0.748 | plasma LDL-C [1]: 0.282 | plasma TCH [1]: 1.152 | plasma TG [1]: 0.967 | plasma VLDL-C [1]: 0.870 | TC/HDL-C [2]: 6.560 | plasma HDL-C [2]: 8.261 | plasma LDL-C [2]: 21.157 | plasma TCH [2]: 36.153 | plasma TG [2]: 5.191 | plasma VLDL-C [2]: 14.996 | TC/HDL-C [3]: 3.000 | plasma HDL-C [3]: 1.46 | plasma LDL-C [3]: 2.60 | plasma TCH [3]: 3.69 | plasma TG [3]: 1.17 | plasma VLDL-C [3]: 1.09 | TC/HDL-C [4]: 4.185 | plasma HDL-C [4]: 0.432 | plasma LDL-C [4]: 0.472 | plasma TCH [4]: 1.430 | plasma TG [4]: 0.93 | plasma VLDL-C [4]: 0.958 | TC/HDL-C [5]: 3.667 | plasma HDL-C [5]: 10.168 | plasma LDL-C [5]: 19.24 | plasma TCH [5]: 34.683 | plasma TG [5]: 4.507 | plasma VLDL-C [5]: 15.443 | TC/HDL-C [6]: 3.844 | plasma HDL-C [6]: 1.17 | plasma LDL-C [6]: 2.19 | plasma TCH [6]: 3.322 | plasma TG [6]: 1.94 | plasma VLDL-C [6]: 1.14 | HDL-C, Wk 0 (APOAI Group 1): 0.748 | lipid con. at dissected aorta (APOAI Group 1 (n = 7)): 0.025 ± 0.0095 µmol/mg | Fatty streak lesions area (APOAI Group 1, Wk 18): 43.84% | Fatty streak lesions area, Compare to wk 10 of control group (APOAI Group 1, Wk 18): 19.03 | Fatty streak lesions area, Compare to wk 18 of control group (APOAI Group 1, Wk 18): −27.36 | Fatty streak lesions area, Decrease % (compare to wk 18 of control group) (APOAI Group 1, Wk 18): 38.43% | Fatty streak lesions area, Increase % (compare to wk 10 of control group) (APOAI Group 1, Wk 18): 77% | HDL-C, Concentration increased (APOAI Group 1, wk 0 to wk 18): 0.716 | HDL-C, Fold increased (APOAI Group 1, wk 0 to wk 18): 1.436 | HDL-C, Wk 0 (APOAI Group 2): 0.432 | lipid con. at dissected aorta (APOAI Group 2 (n = 4)): 0.0267 ± 0.0054 µmol/mg | Fatty streak lesions area (APOAI Group 2, Wk 21): 50.51% | Fatty streak lesions area, Compare to wk 10 of control group (APOAI Group 2, Wk 21): 25.71 | Fatty streak lesions area, Compare to wk 18 of control group (APOAI Group 2, Wk 21): −20.69 | Fatty streak lesions area, Decrease % (compare to wk 18 of control group) (APOAI Group 2, Wk 21): 29.05% | Fatty streak lesions area, Increase % (compare to wk 10 of control group) (APOAI Group 2, Wk 21): 104% | HDL-C, Concentration increased (APOAI Group 2, wk 0 to wk 21): 0.992 | HDL-C, Fold increased (APOAI Group 2, wk 0 to wk 21): 3.078 | HDL-C, Wk 18 or wk 21 (APOAI group 1 (wk 18)): 1.464 | decrease of area of fatty streak lesion vs control group (APOAI group 1 (wk 18)): 38% and 38.43% | TC/HDL-C vs control group (APOAI group 1, P<0.05): significant decrease | VLDL-C vs control group (APOAI group 1, P<0.05): significant decrease | increase of area of fatty streak lesion (APOAI group 1): 77% | rest of plasma lipid values vs control group (APOAI group 1 and 2): no significant change | HDL-C, Wk 18 or wk 21 (APOAI group 2 (wk 21)): 1.423 | decrease of area of fatty streak lesion vs control group (APOAI group 2 (wk 21)): 29% and 29.05% | increase of area of fatty streak lesion (APOAI group 2): 104% | triglyceride content at dissected aorta vs control group (P<0.05): significantly lower | liver index vs control group (rabbit, in vivo): no difference | plasma lipid concentrations (TC, TG, LDL-C, VLDL-C, HDL-C) (vs animal without APOAI treatment): decrease in all plasma lipid concentrations | gross examination of inner surface of aorta (vs control group): no bumps on the inner surface of aorta | liver gross specimen (vs wk 10): less fatty change in gross specimen
